Assay results as given in PMC6010002, “Synthesis, pharmacology and molecular docking on multifunctional tacrine-ferulic acid hybrids as cholinesterase inhibitors against Alzheimer’s disease” (Journal of Enzyme Inhibition and Medicinal Chemistry, 2018).
Read-outs that look alike come from different tables or passages of the source.

Experiments:
[1] = molecular target: T1, AChE (EC 3.1.1.7) from electric eel (Electrophorus electricus, UniProt O42275); test: biochemical; conditions: for SI (selectivity index, AChE IC50/BuChE IC50): eeAChE IC50 / eqBuChE IC50; for IC50: eeAChE, mean ± SEM of triplicate independent experiments
T1 construct: AChE (EC 3.1.1.7, Type VI-S, from electric eel, C3389); purchased Sigma-Aldrich C3389; host or cells: electric eel (natural source)
Procedure: (§1) AChE (EC 3.1.1.7, Type VI-S, from electric eel, C3389) and BuChE (EC 3.1.1.8, from equine serum, C0663), 5,5’-dithiobis (2-nitrobenzoic acid) (DTNB, D218200), acetylthiocholine iodide (ATC, A5751) and butyrylthiocholine iodide (BTC, B3253) used as substrates were obtained from Sigma-Aldrich (St. Louis, MO).
(§2) The inhibitory capacity of the synthesised compounds on AChE and BuChE biological activity in this paper were evaluated according to our previously reported method. Briefly, AChE/BuChE stock solution was diluted with 0.2 M phosphate buffer pH 8.0 to give 2.5 units/mL (for electrophorus electricus (eeAChE) and equine serum (eqBuChE)). ATC/BTC iodide solution (0.075 M) was dissolved in deionized water. […] The assay solution was prepared as follows: potassium dihydrogen phosphate (1.36 g, 10 mmol) was dissolved in 100 ml of water. The pH of the solution was then adjusted to 8.0 ± 0.1 with KOH. Stock solutions of the test samples were dissolved in ethanol to give a final concentration of 10 − 4^ M when diluted to the final volume of 3.32 ml. For each compound, a dilution series of five different concentrations 10 − 5–10 − 9^9 M were prepared.
(§3) For measurement, a cuvette containing 3 mL of phosphate buffer, 100 μL of eeAChE or eqBuChE, 100 μL of DTNB, and 100 μL of the test compound solution was added in sequence. The reaction was initiated by adding 20 μL of ATC or BTC and the solution was mixed immediately. […] For the reference value, 100 μL of water was replaced for the test compound solution. For the blank control, additional 100 μL of water was also replaced for the enzyme solution. The measurement of each concentration was assayed in triplicate. GraphPad Prism 5 (GraphPad Software, Inc., La Jolla, CA) was used for data processing. The inhibition curve was fitted by plotting percentage enzyme activity (100% for the reference) versus the logarithm of test compound concentration. The half maximal inhibitory concentration (IC50) values were calculated according to the curve and the data were shown in mean ± SEM.
(§4) Inhibitory activities were presented as IC50 (nM).

[2] = molecular target: T2, BuChE (EC 3.1.1.8) from horse serum (Equus caballus, UniProt P81908); test: biochemical; conditions: eqBuChE, mean ± SEM of triplicate independent experiments
T2 construct: BuChE (EC 3.1.1.8, from equine serum, C0663); purchased Sigma-Aldrich C0663; host or cells: equine serum (natural source)
Procedure: as §1, §2, §3, §4

Aβ1–42 = molecular target: T3, Aβ1–42 (Homo sapiens, UniProt P05067); test: Inhibition of self-induced Aβ1–42 aggregation (Thioflavin T assay); format: biochemical; conditions: ThT fluorescence, 24 h incubation, read-out: Inhibitory rate of compounds (25 μM) on self-induced Aβ1-42 aggregation
T3 construct: aliquots of 2 μL of Aβ1–42 (AS-64129–05 Anaspec Inc.); purchased Anaspec Inc. AS-64129–05
Procedure: Inhibitory effects of the compounds on self-induced Aβ1–42 aggregation were tested through a Thioflavin T (ThT)-(T3516, Sigma-Aldrich) binding assay.
The calculation of the inhibitory rate of Aβ1–42 self-induced aggregation was performed as the following equation: (1 − IFi/IFc) × 100%. IFi and IFc were the fluorescence intensities measured in the presence and absence of inhibitors, respectively, after subtracting the background fluorescence of the 5 mM ThT solution. Each compound was measured in triplicate.
A thioflavin T-based fluorometric assay was performed.

HepG2 cells = conditions: for Cell viability (% of vehicle): 24 h, MTT, mean ± SEM n = 3; for Antiproliferative activity on HepG2 cells (in words): MTT assay
Procedure: To determine the possible drug-induced hepatotoxicity, 10d and 10g were selected for preliminary hepatotoxicity evaluation. Heparinised serum was obtained after the treatment of the compounds at 8, 22, and 36 h, respectively. […] Additionally, immunohistochemical staining was performed on the liver tissues for the histopathological study.
Methods for Cell Viability Assay. The human hepatocellular HepG2 cells were […]
Cells were seeded into 96-well plates at a density of 3
37 °C for the following experiments. For cytotoxicity test, cells were treated with 0.05- […]
Cell viability was measured by 3-(4,5- dimethylthiazol-2-yl)-2,5-diphenyltetrazolium bromide (MTT) analysis. In brief, 15 µL of MTT was added into each well and incubated at 37 °C for 4 h. The […]
viability was calculated and presented by the percentage of vehicle-treated group.

adult male ICR mice = format: in vivo; conditions: mouse, in vivo
Procedure: . Heparinised serum was obtained from the retrobulbar plexus 8, 22, and 36 h after the administration and were subjected to hepatotoxicity evaluation. The activity of aspartate aminotransferase (AST) and alanine aminotransferase (ALT), two indicators of liver damage, was determined by a commercial assay kit (EF551 and EF550 for ALT, EH027 and EF548 for AST, Wako, Japan). The data were analysed by Biochemical Analyzer (HITACHI 7020, Japan).
Mice were sacrificed 1 h after the collection of retrobulbar blood and livers were removed for morphological studies by using the immunohistochemical method. Two 3 mm sections of each liver extending from the hilus to the margin of the left lateral lobe were isolated using ultra-thin semiautomatic microtome (Leica RM2245, Germany) and placed in 10% buffered formaldehyde immediately, fixed for two days, and embedded together in one paraffin block by using paraffin embedding station (Leica EG1150H, Germany). Subsequently, 5 μm sections were prepared from these paraffin blocks. They were deparaffinated and stained with hematoxylin and eosin (H&E) for histopathological examinations.

[3] = test system: scopolamine-induced cognition-impaired adult ICR mice; test: Morris water maze in scopolamine-induced cognition-impaired mice; format: in vivo; conditions: 30 mg/kg oral, scopolamine 1 mg/kg i.p., mean ± SEM n = 6; for Latency to target: probe trial
Procedure: Behavioral studies were performed using the Morris water maze[25] according to our method reported previously. Adult male imprinting control region (ICR) mice (8–10 weeks old, weight 20–25 g) were obtained from the Yangzhou University Medical Center (Yangzhou, China). All animal handling and experimental protocols were approved by the Institutional Animal Care and Use Committee of the China Pharmaceutical University. Scopolamine hydrobromide was purchased from Aladdin Reagents (S107418, Shanghai, China).
A circular pool (120 cm in diameter, 60 cm height) which was fixed with an escape platform (10 cm diameter) and filled to a depth of 40 cm fresh water (kept at 25 °C) composed the water maze and this water maze placed in a lit room was used to evaluate the cognition function and memory capacity of mice according to our previously described method[24] . After five days of learning and memory training, a probe trial was performed on day 6. For the evaluation of cognitive function, each mouse was individually trained on a visible-platform (labeled by a small flag, 5 cm tall) for two days and was followed by a hidden-platform version (placed 1 cm below the surface of the water) of the water maze from day 3 to day 5. All mice were subjected to two training trials daily, each of which lasted for 90 s. The time for each mouse to find the platform (a successful escape) was recorded. […] On the last day (day 6), a probe trial was given to the mice in which the platform was removed from the pool and each mouse was allowed 90 s to search for the platform. The time the animals spent to reach the missing platform location and the number of times they crossed that location were recorded.
Data for the time of escape latency, the swimming trajectory, and the number of visual platform crossings were recorded by Panlab SMART 3.0 (Panlab, S.L.U, Spain) and GraphPad Prism 5 was used to evaluate the level of memory retention.

T1 sequence (O42275 24-633): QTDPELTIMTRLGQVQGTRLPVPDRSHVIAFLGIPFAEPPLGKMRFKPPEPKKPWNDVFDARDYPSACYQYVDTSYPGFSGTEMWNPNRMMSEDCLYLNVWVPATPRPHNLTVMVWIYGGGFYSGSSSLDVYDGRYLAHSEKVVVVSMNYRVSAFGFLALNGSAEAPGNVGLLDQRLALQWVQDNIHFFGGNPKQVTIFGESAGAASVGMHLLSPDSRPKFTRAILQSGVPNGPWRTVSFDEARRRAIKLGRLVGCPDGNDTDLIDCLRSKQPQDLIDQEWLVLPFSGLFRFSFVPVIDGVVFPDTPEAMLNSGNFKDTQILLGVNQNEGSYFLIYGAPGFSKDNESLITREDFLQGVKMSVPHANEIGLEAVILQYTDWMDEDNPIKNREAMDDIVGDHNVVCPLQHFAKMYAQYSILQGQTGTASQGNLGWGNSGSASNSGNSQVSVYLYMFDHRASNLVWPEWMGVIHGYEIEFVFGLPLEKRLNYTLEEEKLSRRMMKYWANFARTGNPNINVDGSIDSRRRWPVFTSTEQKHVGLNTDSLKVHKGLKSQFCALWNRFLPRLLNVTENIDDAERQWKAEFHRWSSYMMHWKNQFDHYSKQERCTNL
T3 sequence (P05067 672-713): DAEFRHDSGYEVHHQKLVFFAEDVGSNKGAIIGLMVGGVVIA
T2 sequence (P81908 whole entry): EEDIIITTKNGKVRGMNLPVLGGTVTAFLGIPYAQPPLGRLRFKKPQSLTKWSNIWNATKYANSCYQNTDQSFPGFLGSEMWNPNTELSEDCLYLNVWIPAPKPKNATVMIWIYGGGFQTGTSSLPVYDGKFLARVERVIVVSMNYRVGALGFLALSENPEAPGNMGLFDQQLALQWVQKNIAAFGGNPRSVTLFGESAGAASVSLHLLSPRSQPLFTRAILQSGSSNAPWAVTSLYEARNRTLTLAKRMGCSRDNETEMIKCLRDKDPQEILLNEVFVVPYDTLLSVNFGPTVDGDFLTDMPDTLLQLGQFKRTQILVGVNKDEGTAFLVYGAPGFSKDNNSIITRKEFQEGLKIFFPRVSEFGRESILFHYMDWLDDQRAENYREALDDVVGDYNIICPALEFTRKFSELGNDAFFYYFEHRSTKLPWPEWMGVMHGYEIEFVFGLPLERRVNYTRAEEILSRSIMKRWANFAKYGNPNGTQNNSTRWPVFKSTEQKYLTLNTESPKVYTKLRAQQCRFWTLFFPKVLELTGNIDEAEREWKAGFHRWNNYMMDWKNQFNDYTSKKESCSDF

| SMILES | SI (selectivity index, AChE IC50/BuChE IC50) [1] | IC50 [1] | IC50 [2] | inhibition at 25 µM (Aβ1–42) | Cell viability (% of vehicle) (HepG2 cells; HepG2, 0.05 µM) | Cell viability (% of vehicle) (HepG2 cells; HepG2, 0.1 µM) | Cell viability (% of vehicle) (HepG2 cells; HepG2, 0.5 µM) | Cell viability (% of vehicle) (HepG2 cells; HepG2, 2.5 µM) | Cell viability (% of vehicle) (HepG2 cells; HepG2, 5 µM) | Cell viability (% of vehicle) (HepG2 cells; HepG2, 50 µM) | Antiproliferative activity on HepG2 cells (in words) (HepG2 cells) | Morphologic changes in liver (histopathology, HE staining) (adult male ICR mice) | Distance to target [3] | Speed in virtual platform [3] | Latency to target [3] |
| --- | --- | --- | --- | --- | --- | --- | --- | --- | --- | --- | --- | --- | --- | --- | --- |
| COc1cc(/C=C/C(=O)NCCNc2c3c(nc4ccccc24)CCCC3)ccc1OCc1ccc(C#N)cc1 [Compound 10j, (E)-3–(4-((4-cyanobenzyl)oxy)-3-methoxyphenyl)-N-(2-((1,2,3,4-tetrahydroacridin-9-yl)amino)ethyl)acrylamide] | 1.3 | 107 ± 29.9 nM | 79.8 ± 8.9 nM | 49.5% |  |  |  |  |  |  |  |  |  |  |  |
| COc1cc(/C=C/C(=O)NCCNc2c3c(nc4ccccc24)CCCC3)ccc1OCc1ccc(Br)cc1 [Compound 10d, (E)-3–(4-((4-bromobenzyl)oxy)-3-methoxyphenyl)-N-(2-((1,2,3,4-tetrahydroacridin-9-yl)amino)ethyl)acrylamide] | 0.7 | 49.5 ± 3.8 nM | 69.4 ± 13.4 nM | 66.8% | 129.7 ± 7.5 % of vehicle | 125.0 ± 2.3 % of vehicle | 125.6 ± 2.1 % of vehicle | 130.6 ± 2.2 % of vehicle | 13.2 ± 2.3 % of vehicle | 2.5 ± 0.3 % of vehicle | relatively strong toxic effects | did not cause adverse morphologic changes in liver | 628.95 ± 87.55 cm | 18.82 ± 5.36 cm/s | 19.08 ± 2.56 s |
| COc1cc(/C=C/C(=O)NCCNc2c3c(nc4ccccc24)CCCC3)ccc1OCc1ccc(C)c(C)c1 [Compound 10g, (E)-3–(4-((3,4-dimethylbenzyl)oxy)-3-methoxyphenyl)-N-(2-((1,2,3,4-tetrahydroacridin-9-yl)amino)ethyl)acrylamide] | 0.4 | 37 nM | 101 ± 15.5 nM | 65.5% | 128.4 ± 5.6 % of vehicle | 124.6 ± 1.7 % of vehicle | 121.7 ± 3.5 % of vehicle | 128.9 ± 4.1 % of vehicle | 1.5 ± 0.1 % of vehicle | 1.9 ± 0.3 % of vehicle | relatively strong toxic effects | did not cause adverse morphologic changes in liver | 612.85 ± 81.54 cm | 17.27 ± 3.39 cm/s | 24.73 ± 3.54 s |
